Experiments:
[1] = target: T1, Nuclear receptor subfamily 1 group I member 2 (Homo sapiens, UniProt O75469); experiment: Activity at PXR in human hepatocytes assessed as induction of CYP3A4 activity at 1 uM relative rifampicin; type: cell-based, Hepatocyte
T1 sequence (O75469 whole entry): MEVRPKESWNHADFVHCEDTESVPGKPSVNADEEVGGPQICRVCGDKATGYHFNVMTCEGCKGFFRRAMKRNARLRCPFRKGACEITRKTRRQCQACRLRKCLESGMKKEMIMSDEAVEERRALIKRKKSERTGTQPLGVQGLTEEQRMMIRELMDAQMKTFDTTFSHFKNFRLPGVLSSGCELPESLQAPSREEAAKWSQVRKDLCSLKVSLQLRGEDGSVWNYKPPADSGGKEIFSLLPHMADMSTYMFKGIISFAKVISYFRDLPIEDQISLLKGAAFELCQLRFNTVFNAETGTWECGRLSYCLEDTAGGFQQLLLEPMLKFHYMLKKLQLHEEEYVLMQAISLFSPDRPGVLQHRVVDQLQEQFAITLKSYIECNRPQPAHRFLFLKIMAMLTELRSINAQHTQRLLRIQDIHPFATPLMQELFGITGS

Homo sapiens = species on record: Homo sapiens; experiment: Selectivity for human cloned ORL1 receptor over human mu opioid receptor
Mu-type opioid receptor [2] = target: T2, Mu-type opioid receptor (Homo sapiens, UniProt P35372); experiment: Agonist activity at human mu opioid receptor assessed as stimulation of GTPgammaS binding at 10 uM; type: functional
Nociceptin receptor [3] = target: T3, Nociceptin receptor (Homo sapiens, UniProt P41146); experiment: Displacement of [125I][Tyr14]nociceptin from human cloned ORL1 receptor expressed in CHO cells; type: cell-based
Nociceptin receptor [4] = target: T3, Nociceptin receptor; experiment: Agonist activity at human cloned ORL1 receptor assessed as stimulation of GTPgammaS binding; type: functional
Mu-type opioid receptor [5] = target: T2, Mu-type opioid receptor; experiment: Displacement of [3H]diprenorphine from human mu opioid receptor expressed in CHO cells; type: cell-based
Mu-type opioid receptor [6] = target: T2, Mu-type opioid receptor; experiment: Agonist activity at human mu opioid assessed as stimulation of GTPgammaS binding; type: functional
Nociceptin receptor [7] = target: T3, Nociceptin receptor; experiment: Agonist activity at human cloned ORL1 receptor assessed as stimulation of GTPgammaS binding at 10 uM; type: functional
Nociceptin receptor [8] = target: T3, Nociceptin receptor; experiment: Agonist activity at human cloned ORL1 receptor assessed as stimulation of GTPgammaS binding at 5.5 uM; type: functional
Mu-type opioid receptor [9] = target: T2, Mu-type opioid receptor; experiment: Agonist activity at human mu opioid receptor assessed as stimulation of GTPgammaS binding at 5.5 uM; type: functional
Cavia porcellus [10] = experiment: Antitussive activity in po dosed guinea pig GPPV model assessed as reduction of capsaicin-induced coughing after 2 hrs administered 15 mins before capsaicin challenge; type: functional
[11] = Ratio of ED50 for antitussive activity in guinea pig GPPV model to ED50 for anxiolytic like activity in rat; type: functional
Rattus norvegicus = species on record: Rattus norvegicus; experiment: Anxiolytic like activity in rat assessed as conditioned lick suppression after 2 hrs; type: functional
Cavia porcellus [12] = species on record: Cavia porcellus; experiment: Anxiolytic like activity in guinea pig assessed as reduction in number of vocalization produced due to separation measured after 2 hrs; type: functional
[13] = target: Kappa-type opioid receptor (Homo sapiens, UniProt P41145); experiment: Displacement of [3H]diprenorphine from human kappa opioid receptor expressed in CHO cells; type: cell-based
[14] = target: Delta-type opioid receptor (Homo sapiens, UniProt P41143); experiment: Displacement of [3H]diprenorphine from human delta opioid receptor expressed in CHO cells; type: cell-based
Chain of Delta-type opioid receptor (P41143 whole entry): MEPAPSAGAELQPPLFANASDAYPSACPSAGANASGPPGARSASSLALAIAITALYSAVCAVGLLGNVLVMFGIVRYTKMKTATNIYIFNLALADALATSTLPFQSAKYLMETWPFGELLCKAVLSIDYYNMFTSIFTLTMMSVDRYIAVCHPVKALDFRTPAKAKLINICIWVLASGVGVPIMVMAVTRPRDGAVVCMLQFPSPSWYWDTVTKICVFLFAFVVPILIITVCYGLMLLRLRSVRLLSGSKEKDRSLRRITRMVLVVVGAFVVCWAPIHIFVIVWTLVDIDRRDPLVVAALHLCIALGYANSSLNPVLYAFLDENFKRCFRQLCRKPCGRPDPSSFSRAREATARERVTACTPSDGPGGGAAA

T2 sequence (P35372 whole entry): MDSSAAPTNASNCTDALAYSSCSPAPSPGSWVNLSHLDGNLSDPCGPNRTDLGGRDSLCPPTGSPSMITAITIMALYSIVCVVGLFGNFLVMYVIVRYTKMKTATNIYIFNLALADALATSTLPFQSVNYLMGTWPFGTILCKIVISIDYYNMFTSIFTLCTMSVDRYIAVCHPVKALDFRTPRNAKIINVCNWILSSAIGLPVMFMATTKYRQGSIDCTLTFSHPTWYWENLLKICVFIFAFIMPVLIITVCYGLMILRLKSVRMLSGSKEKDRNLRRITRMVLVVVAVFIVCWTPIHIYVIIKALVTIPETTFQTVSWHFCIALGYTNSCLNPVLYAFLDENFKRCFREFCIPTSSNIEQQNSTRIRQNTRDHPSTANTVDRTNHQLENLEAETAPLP
T3 sequence (P41146 whole entry): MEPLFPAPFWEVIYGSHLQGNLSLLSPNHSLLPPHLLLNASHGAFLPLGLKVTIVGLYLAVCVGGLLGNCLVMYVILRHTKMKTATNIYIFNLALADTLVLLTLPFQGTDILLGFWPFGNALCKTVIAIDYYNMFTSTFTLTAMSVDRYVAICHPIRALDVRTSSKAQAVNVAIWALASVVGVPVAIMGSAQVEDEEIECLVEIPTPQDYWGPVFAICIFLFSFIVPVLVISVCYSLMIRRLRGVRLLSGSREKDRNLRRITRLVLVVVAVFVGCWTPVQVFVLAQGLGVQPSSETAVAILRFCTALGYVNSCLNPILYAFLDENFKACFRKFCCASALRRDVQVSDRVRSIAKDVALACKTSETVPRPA
Chain of Kappa-type opioid receptor (P41145 whole entry): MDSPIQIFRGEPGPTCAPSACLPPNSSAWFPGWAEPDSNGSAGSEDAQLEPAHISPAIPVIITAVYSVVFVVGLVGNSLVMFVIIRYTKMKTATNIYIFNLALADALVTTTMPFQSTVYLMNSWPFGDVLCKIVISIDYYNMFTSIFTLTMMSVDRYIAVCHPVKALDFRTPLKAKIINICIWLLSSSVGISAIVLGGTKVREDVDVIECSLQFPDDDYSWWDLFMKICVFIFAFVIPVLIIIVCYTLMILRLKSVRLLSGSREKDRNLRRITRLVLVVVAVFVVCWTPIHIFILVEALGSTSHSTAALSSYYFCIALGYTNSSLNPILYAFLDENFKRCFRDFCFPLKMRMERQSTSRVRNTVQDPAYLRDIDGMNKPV

Structure (SMILES) | Ratio [1] | fold change (FC) (Homo sapiens) | Ki (Nociceptin receptor [3]) [nM] | Ki (Mu-type opioid receptor [5]) [nM] | further results
CC(=O)N[C@]1(c2ccccn2)C[C@H]2CC[C@@H](C1)N2C(c1ccccc1Cl)c1ccccc1Cl | 1.97 | 52 | 6 | 312 | Activity (Mu-type opioid receptor [2]): 68%; EC50 (Nociceptin receptor [4]): 19 nM; EC50 (Mu-type opioid receptor [6]): 1930 nM; Activity (Nociceptin receptor [7]): 84%
NC(=O)[C@]1(c2cccnc2)C[C@H]2CC[C@@H](C1)N2C(c1ccccc1Cl)c1ccccc1Cl | 0.4 |  | 3 | 71 | 
NC(=O)[C@]1(c2ccc(Br)cn2)C[C@H]2CC[C@@H](C1)N2C(c1ccccc1Cl)c1ccccc1Cl | 0.09 | 4 | 29 | 153 | Activity (Mu-type opioid receptor [2]): 89%; EC50 (Nociceptin receptor [4]): 63 nM; EC50 (Mu-type opioid receptor [6]): 421 nM; Activity (Nociceptin receptor [7]): 75%
CN(C)[C@]1(c2ccccn2)C[C@H]2CC[C@@H](C1)N2C(c1ccccc1Cl)c1ccccc1Cl |  |  | 42 | 840 | 
NC(=O)c1ccc([C@@]2(C(N)=O)C[C@H]3CC[C@@H](C2)N3C(c2ccccc2Cl)c2ccccc2Cl)nc1 |  | 4 | 401 | 1320 | 
NC(=O)C1(C2CCCCN2)C[C@H]2CC[C@H](C1)N2C(c1ccccc1Cl)c1ccccc1Cl (relative stereo) |  |  | 17 | 474 | 
Cc1ccc([C@@]2(C(N)=O)C[C@H]3CC[C@@H](C2)N3C(c2ccccc2Cl)c2ccccc2Cl)nc1 | 0.4 |  | 6 | 26 | 
COC(=O)N[C@]1(Cc2ccc(Cl)cc2)C[C@H]2CC[C@@H](C1)N2C(c1ccccc1Cl)c1ccccc1Cl | 1.1 |  | 56 |  | Activity (Nociceptin receptor [8]): 85%; Activity (Mu-type opioid receptor [9]): 59%; EC50 (Nociceptin receptor [4]): 14 nM; EC50 (Mu-type opioid receptor [6]): 1560 nM
COC(=O)NC1(c2ccc(F)cn2)C[C@H]2CC[C@H](C1)N2C(c1ccccc1Cl)c1ccccc1Cl (relative stereo) | 1.38 | 74 | 12 | 887 | 
COC(=O)N[C@]1(c2ccc(Cl)cn2)C[C@H]2CC[C@@H](C1)N2C(c1ccccc1Cl)c1ccccc1Cl | 1.06 | 74 | 12 | 961 | 
NC(=O)[C@]1(c2cccc(F)n2)C[C@H]2CC[C@@H](C1)N2C(c1ccccc1Cl)c1ccccc1Cl | 1.06 | 35 | 10 | 348 | 
NC(=O)[C@]1(c2cc(CF)c(F)cn2)C[C@H]2CC[C@@H](C1)N2C(c1ccccc1Cl)c1ccccc1Cl | 0.77 |  | 19 | 367 | 
NC(=O)[C@]1(c2ccc(N)cn2)C[C@H]2CC[C@@H](C1)N2C(c1ccccc1Cl)c1ccccc1Cl |  | 4 | 31 | 205 | 
NC(=O)[C@]1(c2cc(C(=O)O)c(F)cn2)C[C@H]2CC[C@@H](C1)N2C(c1ccccc1Cl)c1ccccc1Cl |  |  | > 1000 |  | 
CC(=O)N[C@]1(c2ccc(F)cn2)C[C@H]2CC[C@@H](C1)N2C(c1ccccc1Cl)c1ccccc1Cl | 1.47 | 60 | 10 | 601 | 
COc1ccc([C@@]2(C(N)=O)C[C@H]3CC[C@@H](C2)N3C(c2ccccc2Cl)c2ccccc2Cl)nc1 | 0.19 |  | 22 | 133 | 
NC(=O)[C@]1(Cc2ccc(Cl)cc2)C[C@H]2CC[C@@H](C1)N2C(c1ccccc1Cl)c1ccccc1Cl | 0.67 |  | 10 | 284 | 
COc1ccc2c3c1O[C@H]1[C@@H](O)C=C[C@H]4[C@@H](C2)N(C)CC[C@@]341 [CODEINE] |  |  |  |  | ED50 (Cavia porcellus [10]): 6.7 mg/kg
NC(=O)[C@]1(c2ccc(F)cn2)C[C@H]2CC[C@@H](C1)N2C(c1ccccc1Cl)c1ccccc1Cl | 0.29 | 37 | 7 | 123 | Ratio ED50 [11]: 15; ED50 (Rattus norvegicus): 1.7 mg/kg; ED50 (Cavia porcellus [12]): 0.3 mg/kg; EC50 (Nociceptin receptor [4]): 20 nM; EC50 (Mu-type opioid receptor [6]): 733 nM; Ki [13]: 1610 nM; Activity (Nociceptin receptor [7]): 95%; Ki [14]: 3350 nM; ED50 (Cavia porcellus [10]): 0.02 mg/kg
